Results: article PMC9487510, “A Novel Oral GyrB/ParE Dual Binding Inhibitor Effective against Multidrug-Resistant Neisseria gonorrhoeae and Other High-Threat Pathogens” (Antimicrobial Agents and Chemotherapy, 2022)
In brackets after ≈: the same amount, converted by molar mass. Like-named read-outs stand apart in the source and are kept apart here.

Experiments:
[1] = test system: MRSA; assay: MIC, in vitro susceptibility testing (CLSI); format: cell-based, Staphylococcus aureus; details: Staphylococcus aureus, MRSA; for MIC: read-out: MIC
[2] = test system: C. difficile; assay: MIC, toxigenic C. difficile panel (CLSI); format: cell-based, Clostridioides difficile

CNc1cc(F)cc2c1[nH]c1nc(Oc3cnc(C)nc3)nc(N3CCC4(CC3)CO[C@@H](CO)C4)c12 [JSF-2414]
MIC ([1]; strain 2 13 57): 0.016 µg/mL (≈ 0.0324 µM)
MIC ([1]; strain 2 13 58): 0.031 µg/mL (≈ 0.0628 µM)
MIC ([1]; strain 2 35 90): 0.016 µg/mL (≈ 0.0324 µM)
MIC ([1]; strain 2 36 04): 0.031 µg/mL (≈ 0.0628 µM)
MIC ([1]; strain 2 36 17): 0.031 µg/mL (≈ 0.0628 µM)
MIC ([1]; strain 2 36 31): 0.031 µg/mL (≈ 0.0628 µM)
MIC ([1]; strain 2 66 36): 0.016 µg/mL (≈ 0.0324 µM)
MIC ([1]; strain 2 66 41): 0.016 µg/mL (≈ 0.0324 µM)
MIC ([1]; strain 2 78 41): 0.062 µg/mL (≈ 0.126 µM)
MIC ([1]; strain 2 78 62): 0.031 µg/mL (≈ 0.0628 µM)
MIC ([1]; strain 2 78 66): 0.031 µg/mL (≈ 0.0628 µM)
MIC ([1]; strain 2 78 96): 0.031 µg/mL (≈ 0.0628 µM)
MIC ([1]; strain 2 79 17): 0.062 µg/mL (≈ 0.126 µM)
MIC ([1]; strain 2 79 22): 0.031 µg/mL (≈ 0.0628 µM)
MIC ([1]; strain 2 79 25): 0.031 µg/mL (≈ 0.0628 µM)
MIC ([1]; strain 2 79 29): 0.016 µg/mL (≈ 0.0324 µM)
MIC ([1]; strain 2 79 33): 0.031 µg/mL (≈ 0.0628 µM)
MIC ([1]; strain 2 79 65): 0.062 µg/mL (≈ 0.126 µM)
MIC ([1]; strain 2 79 67 (first listing)): 0.031 µg/mL (≈ 0.0628 µM)
MIC ([1]; strain 2 79 67 (second listing)): 0.031 µg/mL (≈ 0.0628 µM)
MIC ([1]; strain 2 80 36): 0.062 µg/mL (≈ 0.126 µM)
MIC ([1]; strain 2 80 46): 0.031 µg/mL (≈ 0.0628 µM)
MIC ([1]; strain 2 80 48): 0.031 µg/mL (≈ 0.0628 µM)
MIC ([1]; strain 2 80 62): 0.031 µg/mL (≈ 0.0628 µM)
MIC ([1]; strain 2 80 67): 0.062 µg/mL (≈ 0.126 µM)
MIC ([1]; strain 2 81 54): 0.031 µg/mL (≈ 0.0628 µM)
MIC ([1]; strain 2 85 12): 0.016 µg/mL (≈ 0.0324 µM)
MIC ([1]; strain 2 85 13): 0.008 µg/mL (≈ 0.0162 µM)
MIC ([1]; strain 2 85 14): 0.031 µg/mL (≈ 0.0628 µM)
MIC ([1]; strain 2 85 32): 0.062 µg/mL (≈ 0.126 µM)
MIC ([1]; strain 2 87 54): 0.031 µg/mL (≈ 0.0628 µM)
MIC ([1]; strain 2 87 55): 0.031 µg/mL (≈ 0.0628 µM)
MIC ([1]; strain 2 87 77): 0.016 µg/mL (≈ 0.0324 µM)
MIC ([1]; strain 2 88 47): 0.016 µg/mL (≈ 0.0324 µM)
MIC ([1]; strain 2 88 71): 0.016 µg/mL (≈ 0.0324 µM)
MIC ([1]; strain 2 88 83): 0.008 µg/mL (≈ 0.0162 µM)
MIC ([1]; strain 2 88 84): 0.004 µg/mL (≈ 0.0081 µM)
MIC ([1]; strain 2 89 13): 0.016 µg/mL (≈ 0.0324 µM)
MIC ([1]; strain 2 89 17): 0.008 µg/mL (≈ 0.0162 µM)
MIC ([1]; strain 2 90 62): 0.016 µg/mL (≈ 0.0324 µM)
MIC ([1]; strain 2 90 86): 0.016 µg/mL (≈ 0.0324 µM)
MIC ([1]; strain 2 90 98): 0.031 µg/mL (≈ 0.0628 µM)
MIC ([1]; strain 2 91 55): 0.031 µg/mL (≈ 0.0628 µM)
MIC ([1]; strain 2 91 79): 0.016 µg/mL (≈ 0.0324 µM)
MIC ([1]; strain 2 91 84): 0.031 µg/mL (≈ 0.0628 µM)
MIC ([1]; strain 2 93 06): 0.062 µg/mL (≈ 0.126 µM)
MIC ([1]; strain 2 93 24): 0.031 µg/mL (≈ 0.0628 µM)
MIC ([1]; strain 2 93 30): 0.031 µg/mL (≈ 0.0628 µM)
MIC ([1]; strain 2 95 78): 0.031 µg/mL (≈ 0.0628 µM)
MIC ([1]; strain 2 96 95): 0.031 µg/mL (≈ 0.0628 µM)
MIC ([1]; strain 2 97 09): 0.016 µg/mL (≈ 0.0324 µM)
MIC ([1]; strain 3 03 39): 0.016 µg/mL (≈ 0.0324 µM)
MIC ([1]; strain 3 65 31): 0.016 µg/mL (≈ 0.0324 µM)
MIC ([1]; strain 3 65 39): 0.016 µg/mL (≈ 0.0324 µM)
MIC ([1]; strain 3 80 43): 0.002 µg/mL (≈ 0.00405 µM)
MIC ([1]; strain 3 80 68): 0.008 µg/mL (≈ 0.0162 µM)
MIC ([1]; strain USA400Padm): 0.062 µg/mL (≈ 0.126 µM)
MIC50 ([1]; 101 strains): 0.031 µg/mL (≈ 0.0628 µM)
MIC90 ([1]; 101 strains): 0.062 µg/mL (≈ 0.126 µM)
MIC ([2]; Clostridioides difficile, BAA1805, strain BAA-1805, read-out: MIC): 0.031 µg/mL (≈ 0.0628 µM)
MIC range ([2]; N = 9, toxigenic panel): 7.8 to 63 ng/mL
